Assay [1] relates to COL1 protein in NHLF cells. The experiment in a line: RapidFire MS/MS quantification of COL1 (IPQA), standard assay. It is filed as cell-based, human. The method, then: Cell culture medium was removed and cells were lysed on ice by adding 5 μl / well of pre–cooled protein extraction buffer containing 10 mM Tris–HCl (pH 8.0), 6 M urea and 2 M thiourea and shaking on ice on a plate shaker at 600 rpm for 30 min.
Cell lysate was transferred to a 96–well polypropylene–PCR–plate. 15 μl / well denaturation buffer (6 M urea, 50 mM ammonium bicarbonate) and 2 μl / well of 50 mM TCEP were added and samples were denatured for 1 h at 60°C using the Veriti 96–well Fast Thermal Cycler System (Applied Biosystem) with a heated lid. Plates were allowed to cool to RT. Subsequently, 2 μl of 100 mM iodoacetamide were added per well to derivatize cysteine residues. Plates were then sealed and vortexed for 2 min in the dark and incubated for 30 min at 37°C in a thermal cycler with a heated lid. 90 μl of 50 mM ammonium bicarbonate pH 7.8 were added, followed by the addition of 10 μl of trypsin at 0.02 μg / ml. Samples were trypsin–digested overnight at 37°C in a thermal cycler with heated lid. […] Samples were desalted under vacuum using an Oasis HLB 96–well (30 μm particle size, 5 mg sorbent / well) reverse phase cartridge according to the manufacturer’s instructions and eluted with 170 μl of 90% acetonitrile, 0.1% formic acid. Samples were dried down with a flow of nitrogen at 40°C, left to cool to RT and re–suspended in 40 μl 5% acetonitrile, 0.1% formic acid on a plate shaker set to 1400 rpm for 5 min. Plates were centrifuged at 4,000 rpm for 10 min and 2 times 12 μl / well of supernatant were transferred into separate 96–well plates (Greiner Bio–One), sealed and stored at 4°C until analyzed by MS / MS.
Surrogate tryptic peptides were chosen for detection of COL1 (COL1A1), α–SMA (ACTA) and tubulin (TBA1A1) and crude synthetic peptides were purchased from Thermo Fischer. After several rounds of optimization following standard workflows, […] (COL1 / COL1A1), […] (α–SMA / ACTA) and […] LC–MS / MS analysis was performed on a RapidFire™ RF360 system (Agilent Technologies) coupled to an API 5500 (ABSciex) with positive ion electrospray ionization. […] Detection was performed using multiple reaction monitoring (MRM) mode to monitor parent⟶product ion transitions (m / z). […] The source parameters were curtain gas (CUR) nitrogen: 20 psig; collision gas (CAD): 7 psig; ion source gas 1: 50.0 psig; ion source gas 2: 50.0 psig; ion spray voltage (IS): 5500 V; turbo heater temperature (TEM): 600°C; entrance potential (EP): 10V. Peak areas for COL1A1 and ACTA were normalized by dividing by TBA1A peak area.

For assay [2], the system named is TGF–β1–induced NHLF myofibroblasts. Nature of the assay: HCA, NHLF myofibroblast reversal assay. It is filed as cell-based. The conditions noted are these: Homo sapiens; reversal assay: 24 h 5 ng/ml TGF–β1, washed, 72 h compound. The procedure:
Each well of a 384–well clear bottom microtiter plate was coated with 0.1% laminin solution for 60 min at 37°C and rinsed once with PBS. NHLF cells were seeded at a density of 750 cells / well in a volume of 40 μl FGM–2 medium and grown for 24 h at 37°C, 5% CO2 and 95% relative humidity. The plate was washed 3 times with starvation medium, e.g. fibroblast basal medium (FBM, Lonza) supplemented with 0.1% faf BSA, 100 units / ml of penicillin and 100 μg / ml of streptomycin and 250 ng / ml amphotericin B, and then starved for 24 h in 30 μl volume. NHLF were differentiated into myofibroblasts by incubation with 5 ng / ml TGF–β1 (from a stock of 20 μg / ml in 4 mM HCl, 1 mg / ml BSA) for 48 h. Compounds were prepared as 5x stocks in starvation medium and added to the starved cells to a final 1x concentration concomitant with TGF–β1 addition. The final DMSO concentration in the assay was 0.6% in all wells. 48 h after TGF–β1 addition, the medium was removed and the cells were fixed in methanol for 10 min at room temperature (RT). After fixation, cells were washed 3 times with 1 x PBS and either stored at 4°C for up to 3 days or further processed. The fixed cells were blocked with 10% goat serum in PBS, 0.25% Tween–20 for 60 min at RT. The primary antibodies, i.e., mouse monoclonal anti–α–SMA (Sigma–Aldrich) and rabbit anti–FN antibody (Sigma–Aldrich), were diluted 1:400 in 10% goat serum in PBS, 0.25% Tween–20 and the fixed cells were incubated with the antibodies for 60 min at RT. After washing the cells 3 times with 1 x PBS, 0.25% Tween–20 the detection antibodies, i.e., goat anti–mouse AlexaFluor 488 (Invitrogen) and goat anti–rabbit AlexaFluor 647 (Invitrogen) were diluted 1:1000 in 1 x PBS, 0.25% Tween–20 and incubated for 1 h at RT together with 1 μg / ml DAPI to stain nuclei and HCS CellMask Orange Stain to label the entire cell. The stained cells were washed 3 times with 1 x PBS containing 0.25% Tween–20, followed by three washes in 1 x PBS, sealed with backing tape and stored at 4°C. Images were acquired on the Opera Phenix confocal high–content screening system (Perkin Elmer) using the 20–x water immersion lens.
Image analysis: The image data acquired with the HCS system were uploaded to ORBIT, an open source image analysis software developed at Idorsia Pharmaceuticals Ltd (http://www.orbit.bio), and analyzed using 288 CPUs in parallel on our computing grid with the ORBIT Cell–Classifier framework using an appropriate CellProfiler pipeline. DAPI stained nuclei were used to identify cells. α–SMA and FN regions were then identified and mapped to the corresponding nuclei for background correction, cell segmentation and cell feature computation to identify, classify and weigh over 400 features per cell. The computed features (S1 Table) comprise, but are not limited to, granularity, intensity, texture, area, shape and solidity of a cell in both α–SMA–and FN–expressing regions. The 0% compound effect (5 ng / ml TGF–β1) and the 100% compound effect (0 ng / ml TGF–β1) controls, were used to train and validate a support vector machine (SVM), a supervised learning model with associated learning algorithm that, once successfully validated, was applied to every cell in every well of the assayed microtiter plate. The SVM allowed autonomous weighting and classification of the characteristics and thus enabled the classifier to decide which characteristics were most relevant for the differentiation of the cell types. […] The classification of each cell was aggregated to a cell type ratio per well, represented as the computed percentage effect value per well indicative of the degree of myofibroblast differentiation. E.g. 100% equals complete myofibroblast differentiation, 0% indicates a pure fibroblast population without any signs of differentiation.
To identify compounds with potential to revert differentiated myofibroblasts to fibroblasts the assay procedures were modified.

Where [3] appears, read: Homo sapiens, Col1, NHLF, 5 ng/ml TGF–β1, lysed 48 h after TGF–β1, normalized to tubulin, mean ± SD, read-out: MS / MS COL1 IC50.
[4] abbreviates: Homo sapiens, Col1, 48 h, NHLF, 5 ng/ml TGF–β1, 48 h, representative experiment of supplementary figure, read-out: IC50 on COL1 (curve of a single experiment).
Where [5] appears, read: Homo sapiens, Col1, 48 h, NHLF, 5 ng/ml TGF–β1, lysed 48 h after TGF–β1, normalized to tubulin, mean ± SD, read-out: MS / MS COL1 IC50.
[6] abbreviates: NHLF, 5 ng/ml TGF–β1, lysed 48 h after TGF–β1, normalized to tubulin, mean ± SD, read-out: MS / MS COL1 IC50.
Setting [7] is: Homo sapiens, Col1, NHLF, 5 ng/ml TGF–β1, 48 h, representative experiment of supplementary figure, read-out: IC50 on COL1 (curve of a single experiment).

Read-outs that look alike come from different tables or passages of the source.

Take `C[C@]12CC[C@H](O)C[C@H]1CC[C@@H]1[C@@H]2C[C@@H](O)[C@]2(C)[C@@H](C3=CC(=O)OC3)CC[C@]12O` [Digoxigenin]: the IC50 in assay [1] (setting [3]) is 0.085 ± 0.008 µM; in assay [2] it was 0.076 µM.

`CCCCC[C@H](O)/C=C/[C@H]1[C@H](O)CC(=O)[C@@H]1CCCCCCC(=O)O` [Alprostadil]: the IC50 came to 0.0032 µM in assay [1] (setting [4]), 0.005 ± 0.0014 µM in assay [1] (setting [5]) and 0.28 µM in assay [2]. For the same molecule, the “effect on basal COL1 expression” value in assay [1] (NHLF in the absence of TGF–β1) is listed as “no effect”.

As for `CCCCC[C@H](O)/C=C/[C@H]1[C@H](O)CC(=O)[C@@H]1C/C=C\CCCC(=O)O` [PGE2, prostaglandin E2], the results for the IC50 in assay [1] (setting [4]), in assay [1] (setting [5]) and in assay [2] were 0.0018 µM, 0.0049 ± 0.0044 µM and 0.145 µM, respectively.

Take `Cc1cccc(-c2[nH]c(CNc3ccccc3F)nc2-c2ccc3ncnn3c2)n1` [EW–7197]: the IC50 in assay [1] (setting [5]) is 0.111 ± 0.03 µM; in assay [1] (setting [6]) it was 0.11 ± 0.03 µM; in assay [2] it was 18 µM.

For the molecule `COC(=O)c1ccc2c(c1)NC(=O)/C2=C(\Nc1ccc(N(C)C(=O)CN2CCN(C)CC2)cc1)c1ccccc1` [Nintedanib], the figures for the IC50 in assay [1] (setting [5]) and in assay [2] were 1.6 µM and 6.9 µM, respectively.

For the molecule “TGF–β1: transforming growth factor–β1, stimulus of myofibroblast differentiation”, in assay [1] (NHLF, 5 ng/mL TGF-β1), the “COL1 / tubulin ratio” value came out at 0.33 ± 0.07. Further, in assay [1] (NHLF, 48 hours, MS/MS (n = 8)), the “EC50 of COL1 protein increase” value stood at 0.05 ± 0.01 ng/mL. Also, the “increase of COL1 protein” value in assay [1] (NHLF, at 48 hours) is “about 3 fold”.

As to `O=C1CC[C@H](/C=C/[C@@H](O)Cc2ccccc2)N1CCCCCCc1nn[nH]n1` [Merck–19a], in assay [1] (setting [6]), the IC50 was 0.0177 ± 0.007 µM.

`O=C(CC1NCCCC1O)Cn1cnc2cc(Br)c(Cl)cc2c1=O` (stereo not drawn) [Halofuginone]: the IC50 in assay [1] (setting [7]) came out at 0.028 µM; in assay [1] (setting [3]), 0.027 ± 0.001 µM; in assay [2], 0.12 µM.

Consider `CC(C)(C)c1ccc(CN(Cc2cccc(OCC(=O)O)c2)S(=O)(=O)c2cccnc2)cc1` [Evatanepag], for which the values for the IC50 in assay [1] (setting [7]), in assay [1] (setting [3]) and in assay [2] were 0.0114 µM, 0.011 µM and 2.3 µM, respectively.

For the origin of these results see publication PMC6261607, “Novel high–throughput myofibroblast assays identify agonists with therapeutic potential in pulmonary fibrosis that act via EP2 and EP4 receptors” (PLoS ONE, 2018).
